Measurements from ChEMBL document CHEMBL3045619, “Antitermite activity of 7-alkoxycoumarins and related analogs against Coptotermes formosanus Shiraki” (2012).

tested on: Coptotermes formosanus; test: Termiticidal activity against Coptotermes formosanus assessed as mortality at 5 uM up to 14 days by no choice test relative to control; format: functional; settings: 336 h

SMILES	mortality at 5 µM
COc1ccc(COc2ccc3ccc(=O)oc3c2)cc1	41.4%
CC#CCOc1ccc2ccc(=O)oc2c1 [7-(2-BUTYNYLOXY)COUMARIN]	51.5%
CCCCCC#CCOc1ccc2ccc(=O)oc2c1 [7-(2-OCTYNYLOXY)COUMARIN]	28.3%
CCC#CCOc1ccc2ccc(=O)oc2c1 [7-(2-PENTYNYLOXY)COUMARIN]	32.3%
COc1cc(COc2ccc3ccc(=O)oc3c2)cc(OC)c1 [7-(3,5-DIMETHOXYBENZYLOXY)COUMARIN]	32.3%
O=c1ccc2ccc(OCCCc3ccccc3)cc2o1 [7-(3-PHENYLPROPOXY)COUMARIN]	16.2%
O=c1ccc2ccc(Oc3ccc([N+](=O)[O-])cc3)cc2o1 [7-(4-NITROPHENOXY)COUMARIN]	62.6%
C=CCOc1ccc2ccc(=O)oc2c1 [7-ALLYLOXYCOUMARIN]	38.4%
O=c1ccc2ccc(OCc3ccccc3)cc2o1 [7-BENZYLOXYCOUMARIN]	23.2%
CCCCOc1ccc2ccc(=O)oc2c1 [7-BUTOXYCOUMARIN]	19.2%
O=C(/C=C/c1ccccc1)Oc1ccc2ccc(=O)oc2c1 [7-CINNAMOYLOXYCOUMARIN]	12.1%
O=c1ccc2ccc(OC3CCCCC3)cc2o1 [7-CYCLOHEXYLOXYCOUMARIN]	65.7%
CCCCCCCCCCCCOc1ccc2ccc(=O)oc2c1 [7-DODECYLOXYCOUMARIN]	19.2%
CCCCCCCCCCCCCCCCOc1ccc2ccc(=O)oc2c1 [7-HEXADECYLOXYCOUMARIN]	3%
CC(C)COc1ccc2ccc(=O)oc2c1 [7-ISOBUTOXYCOUMARIN]	9.1%
CC(C)Oc1ccc2ccc(=O)oc2c1 [7-ISOPROPOXYCOUMARIN]	13.1%
CCCCCCCCCCCCCCCCCCOc1ccc2ccc(=O)oc2c1 [7-OCTADECYLOXYCOUMARIN]	8.1%
CCCCCCCCOc1ccc2ccc(=O)oc2c1 [7-OCTYLOXYCOUMARIN]	17.2%
O=c1ccc2ccc(OCCc3ccccc3)cc2o1 [7-PHENETHOXYCOUMARIN]	10.1%
CCCOc1ccc2ccc(=O)oc2c1 [7-PROPOXYCOUMARIN]	16.2%
C/C=C/COc1ccc2ccc(=O)oc2c1 [(E)-7-(2-BUTENYLOXY)COUMARIN]	33.3%
CCOc1ccc2ccc(=O)oc2c1 [ETHOXYCOUMARIN]	14.1%
COc1ccc2ccc(=O)oc2c1 [HERNIARIN]	13.1%
